Results: patent US11420958B2, “Aryl and heteroaryl substituted indole compounds” (BRISTOL-MYERS SQUIBB COMPANY, priority 2017, dated 2022)

Legend:
Format in all cases: cell-based
[1] = molecular target: human TLR7 (Homo sapiens (Human), UniProt Q9NYK1); test: TLR7 inhibition reporter assay (HEK-Blue, SEAP); conditions: HEK-Blue cells overexpressing human TLR7, gardiquimod 7.5 μM stimulation
Method in brief: (§1)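 HEK-Blue cells overexpressing the receptor carry a SEAP reporter under IFN-β minimal promoter with NF-κB/AP-1 sites. Compounds (0.05 nM–50 μM final) were preincubated 30 min at room temperature, then cells were stimulated with gardiquimod 7.5 μM (TLR7), R848 15.9 μM (TLR8) or ODN2006 5 nM (TLR9) for 22 h at 37 °C.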

[2] = molecular target: human TLR8 (Homo sapiens (Human), UniProt Q9NR97); test: TLR8 inhibition reporter assay (HEK-Blue, SEAP); conditions: HEK-Blue cells overexpressing human TLR8, R848 15.9 μM stimulation
Method in brief: as §1

[3] = molecular target: human TLR9 (Homo sapiens (Human), UniProt Q9NR96); test: TLR9 inhibition reporter assay (HEK-Blue, SEAP); conditions: HEK-Blue cells overexpressing human TLR9, ODN2006 5 nM stimulation
Method in brief: as §1

Sequence of human TLR8 (Q9NR97 27-1041): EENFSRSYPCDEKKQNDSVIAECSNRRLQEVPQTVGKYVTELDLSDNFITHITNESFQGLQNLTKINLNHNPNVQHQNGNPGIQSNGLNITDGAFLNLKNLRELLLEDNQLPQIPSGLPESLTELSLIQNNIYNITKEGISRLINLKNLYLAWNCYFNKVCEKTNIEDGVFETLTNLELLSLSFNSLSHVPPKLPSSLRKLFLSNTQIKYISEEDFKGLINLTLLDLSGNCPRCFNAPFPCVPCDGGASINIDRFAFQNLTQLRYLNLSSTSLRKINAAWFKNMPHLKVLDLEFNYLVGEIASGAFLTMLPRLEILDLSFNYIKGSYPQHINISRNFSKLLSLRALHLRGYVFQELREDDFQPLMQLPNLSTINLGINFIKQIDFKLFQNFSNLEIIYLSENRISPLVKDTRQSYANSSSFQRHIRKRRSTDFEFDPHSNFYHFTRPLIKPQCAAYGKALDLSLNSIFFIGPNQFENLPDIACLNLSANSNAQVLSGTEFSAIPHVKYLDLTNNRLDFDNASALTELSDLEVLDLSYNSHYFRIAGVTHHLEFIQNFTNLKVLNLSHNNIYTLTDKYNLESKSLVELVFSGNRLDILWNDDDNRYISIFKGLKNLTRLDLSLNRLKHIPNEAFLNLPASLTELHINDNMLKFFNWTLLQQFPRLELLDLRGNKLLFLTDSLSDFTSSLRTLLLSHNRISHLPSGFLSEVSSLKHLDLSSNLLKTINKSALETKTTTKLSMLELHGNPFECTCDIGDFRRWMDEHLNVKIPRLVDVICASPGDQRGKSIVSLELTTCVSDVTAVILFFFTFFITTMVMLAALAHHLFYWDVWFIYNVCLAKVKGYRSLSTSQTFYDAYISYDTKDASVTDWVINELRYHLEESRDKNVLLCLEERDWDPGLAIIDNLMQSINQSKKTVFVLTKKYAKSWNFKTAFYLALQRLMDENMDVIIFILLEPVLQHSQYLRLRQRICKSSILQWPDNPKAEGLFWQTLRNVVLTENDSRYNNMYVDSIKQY
Sequence of human TLR9 (Q9NR96 26-1032): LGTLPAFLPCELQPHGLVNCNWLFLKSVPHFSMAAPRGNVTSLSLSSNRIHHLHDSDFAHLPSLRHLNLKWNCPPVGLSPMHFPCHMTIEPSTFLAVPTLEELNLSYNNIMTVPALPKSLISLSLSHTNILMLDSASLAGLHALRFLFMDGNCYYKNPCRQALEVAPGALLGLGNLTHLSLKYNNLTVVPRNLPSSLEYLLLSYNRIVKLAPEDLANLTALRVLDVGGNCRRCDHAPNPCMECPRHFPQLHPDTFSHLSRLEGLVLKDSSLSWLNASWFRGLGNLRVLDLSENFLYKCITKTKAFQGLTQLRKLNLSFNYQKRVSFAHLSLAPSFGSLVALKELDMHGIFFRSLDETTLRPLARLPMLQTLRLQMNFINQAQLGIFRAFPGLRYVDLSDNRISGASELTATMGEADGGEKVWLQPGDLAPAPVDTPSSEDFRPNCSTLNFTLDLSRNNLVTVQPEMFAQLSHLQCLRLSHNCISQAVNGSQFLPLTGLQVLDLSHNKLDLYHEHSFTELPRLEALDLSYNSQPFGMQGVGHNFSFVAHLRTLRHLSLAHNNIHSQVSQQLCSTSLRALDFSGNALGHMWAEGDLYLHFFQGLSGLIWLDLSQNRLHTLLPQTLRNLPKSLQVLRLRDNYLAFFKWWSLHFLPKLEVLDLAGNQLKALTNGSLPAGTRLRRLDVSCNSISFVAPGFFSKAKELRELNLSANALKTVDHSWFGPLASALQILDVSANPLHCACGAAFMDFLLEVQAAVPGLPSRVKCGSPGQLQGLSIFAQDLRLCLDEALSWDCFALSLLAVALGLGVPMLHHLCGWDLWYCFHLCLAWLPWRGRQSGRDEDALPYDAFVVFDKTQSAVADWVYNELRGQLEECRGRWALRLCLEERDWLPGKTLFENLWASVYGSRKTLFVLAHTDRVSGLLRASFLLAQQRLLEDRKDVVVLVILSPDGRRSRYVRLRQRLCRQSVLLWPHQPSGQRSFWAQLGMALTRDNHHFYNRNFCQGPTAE
Sequence of human TLR7 (Q9NYK1 27-1049): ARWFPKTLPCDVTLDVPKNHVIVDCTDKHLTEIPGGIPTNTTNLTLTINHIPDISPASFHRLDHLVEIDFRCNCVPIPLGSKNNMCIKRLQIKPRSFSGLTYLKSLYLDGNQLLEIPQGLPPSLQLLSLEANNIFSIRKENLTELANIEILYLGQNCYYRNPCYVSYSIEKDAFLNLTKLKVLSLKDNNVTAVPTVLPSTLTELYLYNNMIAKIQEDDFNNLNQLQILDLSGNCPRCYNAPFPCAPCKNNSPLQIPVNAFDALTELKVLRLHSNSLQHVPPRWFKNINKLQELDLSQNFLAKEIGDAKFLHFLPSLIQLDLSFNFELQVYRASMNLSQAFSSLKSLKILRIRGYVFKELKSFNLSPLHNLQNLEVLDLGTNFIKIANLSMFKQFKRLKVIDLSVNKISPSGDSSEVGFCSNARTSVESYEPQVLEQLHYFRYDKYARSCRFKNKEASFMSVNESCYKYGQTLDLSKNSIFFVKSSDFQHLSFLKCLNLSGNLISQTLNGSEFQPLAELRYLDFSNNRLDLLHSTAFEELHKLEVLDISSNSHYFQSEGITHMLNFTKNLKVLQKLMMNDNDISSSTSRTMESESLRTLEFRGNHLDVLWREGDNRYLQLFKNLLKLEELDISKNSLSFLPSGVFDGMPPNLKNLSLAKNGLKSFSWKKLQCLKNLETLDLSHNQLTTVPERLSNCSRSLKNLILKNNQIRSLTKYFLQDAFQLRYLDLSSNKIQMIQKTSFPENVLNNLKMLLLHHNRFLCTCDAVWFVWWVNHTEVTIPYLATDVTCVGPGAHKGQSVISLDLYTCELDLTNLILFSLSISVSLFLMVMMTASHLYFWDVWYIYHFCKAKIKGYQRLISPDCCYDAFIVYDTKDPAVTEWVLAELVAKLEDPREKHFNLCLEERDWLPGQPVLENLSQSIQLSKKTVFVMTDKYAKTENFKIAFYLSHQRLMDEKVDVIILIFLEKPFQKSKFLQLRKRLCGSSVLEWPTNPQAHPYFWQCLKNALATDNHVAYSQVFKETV

Row | SMILES | IC50 [1] | IC50 [2] | IC50 [3]
1 | COc1ccc(-c2[nH]c3ccc(-c4cccc(C(=O)NCCC5CCCN5C)c4)cc3c2CC(F)(F)F)cc1OC (stereo not drawn) [Example 25, 3-(2-(3,4-dimethoxyphenyl)-3-(2,2,2-trifluoroethyl)-1H-indol-5-yl)-N-(2-(1-methylpyrrolidin-2-yl)ethyl)benzamide] | 0.19 µM | 0.088 µM | 1.38 µM
2 | CNCCN1CCn2nc(-c3ccc4[nH]c(-c5ccnc(C)c5)c(C(C)C)c4c3)c(C(=O)NC)c2C1 [Example 219, 2-(3-isopropyl-2-(2-methylpyridin-4-yl)-1H-indol-5-yl)-N-methyl-5-(2-(methylamino)ethyl)-4,5,6,7-tetrahydropyrazolo[1,5-a]pyrazine-3-carboxamide] | 0.163 µM | 0.147 µM | 2.6 µM
3 | COc1ccc(-c2[nH]c3ccc(-c4nnc(C[C@@H]5CCCN5)o4)cc3c2C(C)C)cc1OC [Example 51, (S)-2-(2-(3,4-dimethoxyphenyl)-3-isopropyl-1H-indol-5-yl)-5-(pyrrolidin-2-ylmethyl)-1,3,4-oxadiazole] | 0.06 µM | 0.0077 µM | 1.07 µM
4 | CC(C)c1c(-c2ccnc3n[nH]cc23)[nH]c2ccc(-c3nnc(CN4CCCC4)o3)cc12 [Example 128, 2-(3-isopropyl-2-(2H-pyrazolo[3,4-b]pyridin-4-yl)-1H-indol-5-yl)-5-(pyrrolidin-1-ylmethyl)-1,3,4-oxadiazole] | 1.1 µM | 0.167 µM | 34.1 µM
5 | CC(C)c1c(-c2ccnc3[nH]ncc23)[nH]c2ccc(-c3nnc([C@H]4CCCNC4)o3)cc12 [Example 126, (S)-2-(3-isopropyl-2-(1H-pyrazolo[3,4-b]pyridin-4-yl)-1H-indol-5-yl)-5-(piperidin-3-yl)-1,3,4-oxadiazole] | 0.045 µM | 0.0034 µM | 0.389 µM
6 | COc1ccc(-c2[nH]c3ccc(-c4ncc[nH]4)cc3c2C(C)C)cc1OC [Example 165, 2-(3,4-dimethoxyphenyl)-5-(1H-imidazol-2-yl)-3-isopropyl-1H-indole] | 0.093 µM | 0.0073 µM | 6.69 µM
7 | COc1ccc(-c2[nH]c3ccc(-c4nnc(CCN(C)C)o4)cc3c2C(C)C)cc1OC [Example 43, 2-(5-(2-(3,4-dimethoxyphenyl)-3-isopropyl-1H-indol-5-yl)-1,3,4-oxadiazol-2-yl)-N,N-dimethylethan-1-amine] | 0.04 µM | 0.002 µM | 1.46 µM
8 | COc1ccc(-c2[nH]c3ccc(-c4ccc(N5CCCN(C)CC5)cc4)cc3c2C(C)C)cc1OC [Example 380, 2-(3,4-dimethoxyphenyl)-3-isopropyl-5-(4-(4-methyl-1,4-diazepan-1-yl)phenyl)-1H-indole] | 0.881 µM | 0.035 µM | 2.92 µM
9 | Cc1cc(-c2[nH]c3ccc(-c4nnc(C5CCN(CC(=O)N(C)C)CC5)[nH]4)cc3c2C(C)C)ccn1 [Example 185, 2-(4-(5-(3-isopropyl-2-(2-methylpyridin-4-yl)-1H-indol-5-yl)-4H-1,2,4-triazol-3-yl)piperidin-1-yl)-N,N-dimethylacetamide] | 0.084 µM | 0.0033 µM | 7.59 µM
10 | CC(=O)N1CCCN(Cc2nnc(-c3ccc4[nH]c(-c5ccnc6[nH]ncc56)c(C(C)C)c4c3)o2)CC1 [Example 155, 1-(4-((5-(3-isopropyl-2-(1H-pyrazolo[3,4-b]pyridin-4-yl)-1H-indol-5-yl)-1,3,4-oxadiazol-2-yl)methyl)-1,4-diazepan-1-yl)ethan-1-one] | 1.42 µM | 0.127 µM | > 50 µM
11 | Cc1cc(-c2[nH]c3ccc(-c4nnc([C@@H]5CSCN5)o4)cc3c2C(C)C)ccn1 [Example 68, (R)-2-(3-isopropyl-2-(2-methylpyridin-4-yl)-1H-indol-5-yl)-5-(thiazolidin-4-yl)-1,3,4-oxadiazole] | 0.32 µM | 0.041 µM | 31.6 µM
12 | Cc1cc(-c2[nH]c3ccc(-c4nc(C(=O)NCCN5CCOCC5)co4)cc3c2C(C)C)cc(C)n1 [Example 281, 2-(2-(2,6-dimethylpyridin-4-yl)-3-isopropyl-1H-indol-5-yl)-N-(2-morpholinoethyl)oxazole-4-carboxamide] | 0.034 µM | 0.0087 µM | 11.2 µM
13 | CCc1c(-c2ccc(OC)c(OC)c2)[nH]c2ccc(-c3noc(CCN(C)C)n3)cc12 [Example 454, 2-(3-(2-(3,4-dimethoxyphenyl)-3-ethyl-1H-indol-5-yl)-1,2,4-oxadiazol-5-yl)-N,N-dimethylethan-1-amine] | 0.306 µM | 0.019 µM | 11.3 µM
14 | Cc1cc(-c2[nH]c3ccc(-c4nnc(CCN(C)C)o4)cc3c2C(C)C)ccn1 [Example 143, 2-(5-(3-isopropyl-2-(2-methylpyridin-4-yl)-1H-indol-5-yl)-1,3,4-oxadiazol-2-yl)-N,N-dimethylethan-1-amine] | 0.047 µM | 0.0008 µM | 1.68 µM
15 | Cc1cc(-c2[nH]c3ccc(-c4nnc(C(C)CN)o4)cc3c2C(C)C)ccn1 (stereo not drawn) [Example 263, 2-(5-(3-isopropyl-2-(2-methylpyridin-4-yl)-1H-indol-5-yl)-1,3,4-oxadiazol-2-yl)propan-1-amine] | 0.05 µM | 0.0032 µM | 0.869 µM
16 | CNC(=O)c1ccc(-c2ccc3[nH]c(-c4cc(C)nc(C)c4)c(C(C)C)c3c2)cn1 [Example 316, 5-(2-(2,6-dimethylpyridin-4-yl)-3-isopropyl-1H-indol-5-yl)-N-methylpicolinamide] | 0.028 µM | 0.065 µM | > 50 µM
17 | COc1ccc(-c2[nH]c3ccc(-c4ccc(OCCCN(C)C)nc4)cc3c2C(C)C)cc1OC [Example 421, 3-((5-(2-(3,4-dimethoxyphenyl)-3-isopropyl-1H-indol-5-yl)pyridin-2-yl)oxy)-N,N-dimethylpropan-1-amine] | 0.063 µM | 0.012 µM | 2.75 µM

These reach a lower IC50 [1]. Values come first.

Row | IC50 [1] | IC50 [2] | IC50 [3] | SMILES
18 | 0.0038 µM | 0.0018 µM | 0.156 µM | Cc1cc(-c2[nH]c3ccc(-c4nc(C(=O)NCCCN(C)C)co4)cc3c2C(C)C)cc(C)n1 [Example 280, N-(3-(dimethylamino)propyl)-2-(2-(2,6-dimethylpyridin-4-yl)-3-isopropyl-1H-indol-5-yl)oxazole-4-carboxamide]
19 | 0.02 µM | 0.0033 µM | 46.7 µM | Cc1cc(-c2[nH]c3ccc(-c4nc5c(s4)CCN(CC(=O)N(C)C)C5)cc3c2C(C)C)cc(C)n1 [Example 329, 2-(2-(2-(2,6-dimethylpyridin-4-yl)-3-isopropyl-1H-indol-5-yl)-6,7-dihydrothiazolo[4,5-c]pyridin-5(4H)-yl)-N,N-dimethylacetamide]
20 | 0.021 µM | 0.013 µM | 1.08 µM | Cc1cc(-c2[nH]c3ccc(-c4nc(C(=O)NCC(C)CN)co4)cc3c2C(C)C)cc(C)n1 (stereo not drawn) [Example 277, N-(3-amino-2-methylpropyl)-2-(2-(2,6-dimethylpyridin-4-yl)-3-isopropyl-1H-indol-5-yl)oxazole-4-carboxamide]
21 | 0.014 µM | 0.091 µM | 0.114 µM | Cc1cn2cc(-c3[nH]c4ccc(-c5ccc(N6CCN(C)CC6)nc5)cc4c3C(C)C)ccc2n1 [Example 333, 6-(3-isopropyl-5-(6-(4-methylpiperazin-1-yl)pyridin-3-yl)-1H-indol-2-yl)-2-methylimidazo[1,2-a]pyridine]
22 | 0.0086 µM | 0.0056 µM | 2.12 µM | Cc1cc(-c2[nH]c3ccc(-c4ccc(N)nn4)cc3c2C(C)C)cc(C)n1 [Example 349, 6-(2-(2,6-dimethylpyridin-4-yl)-3-isopropyl-1H-indol-5-yl)pyridazin-3-amine]
23 | 0.005 µM | 0.0079 µM | 0.181 µM | Cc1cc(-c2[nH]c3ccc(-c4ccnc(C5CCNCC5)c4)cc3c2C(C)C)cc(C)n1 [Example 344, 2-(2,6-dimethylpyridin-4-yl)-3-isopropyl-5-(2-(piperidin-4-yl)pyridin-4-yl)-1H-indole]
24 | 0.0083 µM | 0.0054 µM | 0.523 µM | Cc1cc(-c2[nH]c3ccc(-c4ccc(N5CCN(CCO)CC5)nc4)cc3c2C(C)C)cc(C)n1 [Example 339, 2-(4-(5-(2-(2,6-dimethylpyridin-4-yl)-3-isopropyl-1H-indol-5-yl)pyridin-2-yl)piperazin-1-yl)ethan-1-ol]
25 | 0.022 µM | 0.03 µM | 0.306 µM | CC(C)c1c(-c2ccc3nccn3c2)[nH]c2ccc(-c3nnc(C(=O)NCCN(C)C)o3)cc12 [Example 242, N-(2-(dimethylamino)ethyl)-5-(2-(imidazo[1,2-a]pyridin-6-yl)-3-isopropyl-1H-indol-5-yl)-1,3,4-oxadiazole-2-carboxamide]
26 | 0.011 µM | 0.0027 µM | 17.9 µM | Cc1cc(-c2[nH]c3ccc(-c4ccc(NC(=O)C(F)(F)F)nc4)cc3c2C(C)C)ccn1 [Example 295, 2,2,2-trifluoro-N-(5-(3-isopropyl-2-(2-methylpyridin-4-yl)-1H-indol-5-yl)pyridin-2-yl)acetamide]
27 | 0.026 µM | 0.006 µM | 0.77 µM | COc1ccc(-c2[nH]c3ccc(-c4nnc([C@H]5CCCNC5)o4)cc3c2C(C)C)cc1OC [Example 52, (S)-2-(2-(3,4-dimethoxyphenyl)-3-isopropyl-1H-indol-5-yl)-5-(piperidin-3-yl)-1,3,4-oxadiazole]
28 | 0.017 µM | 0.0066 µM | 0.399 µM | Cc1cc(-c2[nH]c3ccc(-c4nc(C(=O)NCC5CCCCN5)co4)cc3c2C(C)C)cc(C)n1 (stereo not drawn) [Example 287, 2-(2-(2,6-dimethylpyridin-4-yl)-3-isopropyl-1H-indol-5-yl)-N-(piperidin-2-ylmethyl)oxazole-4-carboxamide]
